Values joined by “and” are separate entries in the source; they are usually repeats but may differ in a detail not shown here. Equal entries are not always repeated.
Test: Mouse body weight, SW48 xenograft study with HRO761
Assay type: in vivo
Set-up: Body weight change, individual animals / Body weight change, group mean: unit not given here
Details: for Body weight change, group mean / Body weight change, individual animals: SW48 xenograft-bearing mice
Experimental: All animal studies were conducted in accordance with ethics and procedures covered by permit BS-2275 and BS-1975 issued by the Kantonales Veterinäramt Basel-Stadt and in strict adherence to guidelines of the Eidgenössisches Tierschutzgesetz and the Eidgenössische Tierschutzverordnung, Switzerland. All animal studies were approved by the internal ethics committee. All animals had access to food and water ad libitum and were identified with transponders. They were housed in a specific-pathogen-free facility in IVC racks under a 12 h–12 h light–dark cycle. To establish cell-line-derived xenograft models, 6–7-week-old female athymic nude (Crl:NU(NCr)-Foxn1^nu) or SCID-BEIGE (CB17.Cg-PrkdcscidLystbg-J/Crl) mice from Charles River were engrafted subcutaneously with 5 million tumour cells in HBSS (H6648, Sigma-Aldrich). For SNU-407, Lovo, IM95, RL95.2, Ishikawa and IGROV-1, the cells were concentrated in 50% Matrigel (354234, Corning). Patient-derived xenografts were induced and expanded by transplantation as previously described. […] For the efficacy experiment, mice were randomized into groups (n = 5–6) for a mean tumour size of 100–150 mm^3. […] Blood samples were collected on day 7 and 91. […] Tumour responses are reported with the measures of tumour volumes from the treatment start. […] Animals were randomized (n = 3) and tumour samples were collected at 0, 1, 4, 8 and 24 h on the first day and then collected 4 h after the last treatment on day 3, 8, 10, 14 (including a 24 h timepoint), 17 and 21. Tumours were excised, weighed, either frozen in liquid nitrogen and cryogenic dry pulverized with the CryoPrep system (model CP-02, Covaris) or processed to FFPE after fixation. […] On day 12, blood samples were collected for PK analysis. On the last day (3 h after the last treatment), tumours were excised, weighed, frozen in liquid nitrogen and cryogenic dry pulverized for PD analysis.

[1] = HRO761 120mg/kg, day 0 post 1st dose

CCc1c(N2CCN(C(=O)c3ncnc(C)c3O)CC2)c(=O)n2nc(C3=CCOCC3)nc2n1CC(=O)Nc1ccc(C(F)(F)F)cc1Cl [HRO761]
Mean DBW (HRO761 60mg/kg, day 21 post 1st dose): 1.03% | Mean DBW (HRO761 60mg/kg, day 24 post 1st dose): 2.43% | Mean DBW (HRO761 60mg/kg, day 28 post 1st dose): 5.12% | Mean DBW (HRO761 60mg/kg, day 31 post 1st dose): 5.38% | Mean DBW (HRO761 60mg/kg, day 35 post 1st dose): 4.36% | Mean DBW (HRO761 60mg/kg, day 38 post 1st dose): 2.35% | Mean DBW (HRO761 60mg/kg, day 42 post 1st dose): 3.45% | Mean DBW (HRO761 60mg/kg, day 45 post 1st dose): 2.45% | Mean DBW (HRO761 60mg/kg, day 49 post 1st dose): 3.51% | Mean DBW (HRO761 60mg/kg, day 52 post 1st dose): 2.35% | Mean DBW (HRO761 60mg/kg, day 56 post 1st dose): 2.93% | Mean DBW (HRO761 60mg/kg, day 59 post 1st dose): 4.86% | Mean DBW (HRO761 60mg/kg, day 63 post 1st dose): 4.98% | Mean DBW (HRO761 60mg/kg, day 66 post 1st dose): 5.96% | Mean DBW (HRO761 60mg/kg, day 70 post 1st dose): 5.36% | Mean DBW (HRO761 60mg/kg, day 73 post 1st dose): 5.45% | Mean DBW (HRO761 60mg/kg, day 76 post 1st dose): 8.05% | Mean DBW (HRO761 60mg/kg, day 79 post 1st dose): 6.02% | Mean DBW (HRO761 60mg/kg, day 83 post 1st dose): 6.63% | Mean DBW (HRO761 60mg/kg, day 86 post 1st dose): 7.71% | Delta BW change, individual mouse [1]: 0% | Mean DBW [1]: 0.00% | Mean DBW (HRO761 120mg/kg, day 3 post 1st dose): -2.05% | Delta BW change, individual mouse (HRO761 120mg/kg, day 3 post 1st dose, 120 mg/kg): -1.24% and 0% and -5.24% and -5.96% and 2.18% | Mean DBW (HRO761 120mg/kg, day 7 post 1st dose): 0.64% | Delta BW change, individual mouse (HRO761 120mg/kg, day 7 post 1st dose, 120 mg/kg): 0% (2×) and 3.8% and -3.23% and 2.62% | Mean DBW (HRO761 120mg/kg, day 10 post 1st dose): 0.034% | Delta BW change, individual mouse (HRO761 120mg/kg, day 10 post 1st dose, 120 mg/kg): 2.07% and 3.8% and -2.42% and -4.59% and 1.31% | Mean DBW (HRO761 120mg/kg, day 14 post 1st dose): 1.43% | Delta BW change, individual mouse (HRO761 120mg/kg, day 14 post 1st dose, 120 mg/kg): 4.15% and 4.56% and -2.82% and -0.92% and 2.18% | Mean DBW (HRO761 120mg/kg, day 17 post 1st dose): 1.14% | Mean DBW (HRO761 120mg/kg, day 21 post 1st dose): 5.29% | Mean DBW (HRO761 120mg/kg, day 24 post 1st dose): 6.66% | Mean DBW (HRO761 120mg/kg, day 28 post 1st dose): 5.89% | Mean DBW (HRO761 120mg/kg, day 31 post 1st dose): 6.52% | Mean DBW (HRO761 120mg/kg, day 35 post 1st dose): 7.34% | Mean DBW (HRO761 120mg/kg, day 38 post 1st dose): 4.89% | Mean DBW (HRO761 120mg/kg, day 42 post 1st dose): 6.61% | Mean DBW (HRO761 120mg/kg, day 45 post 1st dose): 7.02% | Mean DBW (HRO761 120mg/kg, day 49 post 1st dose): 8.54% | Mean DBW (HRO761 120mg/kg, day 52 post 1st dose): 5.69% | Mean DBW (HRO761 120mg/kg, day 56 post 1st dose): 7.31% | Mean DBW (HRO761 120mg/kg, day 59 post 1st dose): 8.08% | Mean DBW (HRO761 120mg/kg, day 63 post 1st dose): 9.90% | Mean DBW (HRO761 120mg/kg, day 66 post 1st dose): 9.60% | Mean DBW (HRO761 120mg/kg, day 70 post 1st dose): 9.57% | Mean DBW (HRO761 120mg/kg, day 73 post 1st dose): 7.95% | Mean DBW (HRO761 120mg/kg, day 76 post 1st dose): 11.43% | Mean DBW (HRO761 120mg/kg, day 79 post 1st dose): 9.25% | Mean DBW (HRO761 120mg/kg, day 83 post 1st dose): 10.23% | Mean DBW (HRO761 120mg/kg, day 86 post 1st dose): 9.35% | Body weight change, group mean (HRO761 40mg/kg, day 90 post 1st dose): 13.42 | Body weight change, individual animals (HRO761 40mg/kg, day 90 post 1st dose, 40 mg/kg): 12.73 and 18.18 and 7.58 and 10.23 and 18.39 | Body weight change, group mean (HRO761 40mg/kg, day 92 post 1st dose): 10.60 | Body weight change, individual animals (HRO761 40mg/kg, day 92 post 1st dose, 40 mg/kg): 10.45 and 10.82 and 5.05 and 12.5 and 14.18 | Body weight change, group mean (HRO761 60mg/kg, day 90 post 1st dose): 7.89 | Body weight change, individual animals (HRO761 60mg/kg, day 90 post 1st dose, 60 mg/kg): 7.66 and 9.39 and 10.88 and 1.67 and 9.83 | Body weight change, group mean (HRO761 60mg/kg, day 92 post 1st dose): 5.46 | Body weight change, individual animals (HRO761 60mg/kg, day 92 post 1st dose, 60 mg/kg): 5.11 and 6.53 and 6.69 and 0.42 and 8.55 | Body weight change, group mean (HRO761 120mg/kg, day 90 post 1st dose): 10.59 | Body weight change, individual animals (HRO761 120mg/kg, day 90 post 1st dose, 120 mg/kg): 9.96 and 14.07 and 7.66 and 5.96 and 15.28 | Body weight change, group mean (HRO761 120mg/kg, day 92 post 1st dose): 7.50 | Body weight change, individual animals (HRO761 120mg/kg, day 92 post 1st dose, 120 mg/kg): 5.81 and 9.13 and 4.84 and 5.5 and 12.23 | toxicity inferred from animal weight (doses up to 120 mg per kg): did not cause toxicity

Reference: PMC11078746 (Nature, 2024)
